Reference: patent US5030760A, “Tetrahydrophthalimides, and their production and use” (Sumitomo Chemical Company, Ltd., priority 1981, dated 1991)

Legend:
[1] = tested on: rice plant; test: Test Example 7, flooded paddy pot dripping, phytotoxicity to rice plant; format: in vivo; conditions: 3 weeks; note: ranges in brackets are in %
Method: (§1) The application of the tetrahydrophthalimides (I) as herbicides will be illustratively shown in the following Examples wherein the phytotoxicity to cultivated plants and the herbicidal activity on weeds were evaluated as follows: the aerial parts of the test plants were cut off and weighed (fresh weight); the percentage of the fresh weight of the treated plant to that of the untreated plant was calculated with the latter fresh weight taken as 100; and the crop damage and the herbicidal activity were evaluated by the standard given in the table below. The rating values of phytotoxicity, 0 and 1, and those of herbicidal effect, 5 and 4, are generally regarded as satisfactory to protect cultivated plants and control weeds, respectively. The rating values in the paddy field test alone were calculated from the dry weight of the test plants.
(§2) Wagner's pots (1/5000 are) were filled with paddy field soil and water was poured therein to make a flooded condition. Rice seedlings of the 3-leaf stage were transplanted and tubers of slender spikerush and arrowhead and the seeds of barnyardgrass, monochoria and broad-leaved weed were sowed therein and grown for 5 days. When germination occurs, a designed amount of the test compound formulated into an emulsifiable concentrate according to Preparation Example 2 was applied to the pots by dripping. The test plants were grown for a further 3 weeks, and herbicidal activity and phytotoxicity were examined. The herbicidal activity was evaluated in figures ranging from 0 to 5. The phytotoxicity to the crop plants was also indicated on the same standard as that of the herbicidal activity.

[2] = tested on: barnyardgrass; test: Test Example 7, flooded paddy pot dripping, herbicidal activity; format: in vivo, Echinochloa crus-galli; conditions: 3 weeks; note: ranges in brackets are in %
Method: as §1, §2

[3] = tested on: monochoria; test: as above; format: in vivo, Monochoria vaginalis; conditions: 3 weeks; note: ranges in brackets are in %
Method: as §1, §2

[4] = tested on: broad-leaved weed; test: as above; format: in vivo; conditions: 3 weeks; note: ranges in brackets are in %
Method: as §1, §2

[5] = tested on: slender spikerush; test: as above; format: in vivo, Eleocharis acicularis; conditions: 3 weeks; note: ranges in brackets are in %
Method: as §1, §2

[6] = tested on: arrowhead; test: as above; format: in vivo, Sagittaria pygmaea; conditions: 3 weeks; note: ranges in brackets are in %
Method: as §1, §2

[7] = tested on: corn; test: Test Example 1, foliar treatment, phytotoxicity to corn; format: in vivo; conditions: 3 weeks; note: ranges in brackets are in %
Method: as §1
(§3) Plastic beakers (diameter, 10 cm; height, 10 cm) were filled with upland field soil, and the seeds of corn, barnyardgrass, wild oat, wild mustard and velvetleaf were separately sown in the beakers and grown for 2 weeks in the greenhouse. A designed amount of the test compound was sprayed to the foliage of the test plants by means of a small hand sprayer. After the spraying, the test plants were further grown for 3 weeks in the greenhouse, and herbicidal activity was examined. In this foliar treatment, the test compounds were formulated into an emulsifiable concentrate according to Preparation Example 2 and applied at a spray volume of 5 liters per are by dispersing it in water with the addition of a spreading agent.

[8] = tested on: barnyardgrass; test: Test Example 1, foliar treatment, herbicidal activity; format: in vivo, Echinochloa crus-galli; conditions: 3 weeks; note: ranges in brackets are in %
Method: as §1, §3

[9] = tested on: wild oat; test: as above; format: in vivo, Avena fatua; conditions: 3 weeks; note: ranges in brackets are in %
Method: as §1, §3

[10] = tested on: wild mustard; test: as above; format: in vivo, Brassica kaber; conditions: 3 weeks
Method: as §1, §3

[11] = tested on: velvetleaf; test: as above; format: in vivo, Abutilon theophrasti; conditions: 3 weeks
Method: as §1, §3

[12] = tested on: corn; test: Test Example 3, soil surface spraying, phytotoxicity to corn; format: in vivo; conditions: 20 days; note: ranges in brackets are in %
Method: as §1
(§4) Plastic trays (35 cm×25 cm×15 cm) were filled with upland field soil, and the seeds of tall morningglory, velvetleaf and sicklepod and the seeds of corn were sown therein. A designed amount of the test compounds formulated into a wettable powder according to Preparation Example 1 was dispersed in water and applied by spraying at a spray volume of 5 liters per are to the whole surface of the soil. After the spraying, the test plants were placed in a greenhouse and grown for 20 days, and herbicidal activity and phytotoxicity were examined.

[13] = tested on: tall morningglory; test: Test Example 3, soil surface spraying, herbicidal activity; format: in vivo, Ipomoea purpurea; conditions: 20 days; note: ranges in brackets are in %
Method: as §1, §4

[14] = tested on: sicklepod; test: as above; format: in vivo, Cassia obtusifolia; conditions: 20 days; note: ranges in brackets are in %
Method: as §1, §4

[15] = tested on: velvetleaf; test: as above; format: in vivo, Abutilon theophrasti; conditions: 20 days
Method: as §1, §4
Throughout, for Herbicidal activity, Velvetleaf: ranges in brackets are in %.

SMILES | Phytotoxicity, Rice plant ([1]; 1.25 g/are) | Phytotoxicity, Rice plant ([1]; 2.5 g/are) | Phytotoxicity, Rice plant ([1]; 5 g/are) | Herbicidal activity, Barnyardgrass ([2]; 1.25 g/are) | Herbicidal activity, Barnyardgrass ([2]; 2.5 g/are) | Herbicidal activity, Barnyardgrass ([2]; 5 g/are) | Herbicidal activity, Monochoria ([3]; 1.25 g/are) | Herbicidal activity, Monochoria ([3]; 2.5 g/are) | Herbicidal activity, Monochoria ([3]; 5 g/are) | Herbicidal activity, Broad-leaved weed ([4]; 1.25 g/are) | Herbicidal activity, Broad-leaved weed ([4]; 2.5 g/are) | Herbicidal activity, Broad-leaved weed ([4]; 5 g/are) | Herbicidal activity, Slender spikerush ([5]; 1.25 g/are) | Herbicidal activity, Slender spikerush ([5]; 2.5 g/are) | Herbicidal activity, Slender spikerush ([5]; 5 g/are) | Herbicidal activity, Allowhead ([6]; 1.25 g/are) | Herbicidal activity, Allowhead ([6]; 2.5 g/are) | Herbicidal activity, Allowhead ([6]; 5 g/are) | Phytotoxicity, Corn ([7]; 1.25 g/are) | Phytotoxicity, Corn ([7]; 5 g/are) | also measured
CCCCCCOc1cc(N2C(=O)C3=C(CCCC3)C2=O)c(F)cc1Cl [compound 8] | 0 (0-9) | 0 (0-9) | 0 (0-9) | 4 (70-89) | 5 (90-100) | 5 (90-100) | 5 (90-100) | 5 (90-100) | 5 (90-100) | 5 (90-100) | 5 (90-100) | 5 (90-100) | 4 (70-89) | 4 (70-89) | 5 (90-100) | 4 (70-89) | 5 (90-100) | 5 (90-100) |  |  | 
CC(C)COc1cc(N2C(=O)C3=C(CCCC3)C2=O)c(F)cc1Cl [compound 5] |  |  |  |  |  |  |  |  |  |  |  |  |  |  |  |  |  |  | 0 (100) | 0 (100) | Herbicidal activity, Barnyardgrass ([8]; 1.25 g/are): 2 (21-40); Herbicidal activity, Barnyardgrass ([8]; 5 g/are): 4 (1-10); Herbicidal activity, Wild cat ([9]; 1.25 g/are): 1 (41-60); Herbicidal activity, Wild cat ([9]; 5 g/are): 4 (1-10); Herbicidal activity, Wild mustard ([10]; 1.25 g/are): 3 (11-20); Herbicidal activity, Wild mustard ([10]; 5 g/are): 5 (0); Herbicidal activity, Velvetleaf ([11]; 1.25 g/are): 5 (0); Herbicidal activity, Velvetleaf ([11]; 5 g/are): 5 (0); Phytotoxicity, Corn ([12]; 5 g/are): 0 (100); Phytotoxicity, Corn ([12]; 10 g/are): 0 (100); Herbicidal activity, Tall morningglory ([13]; 5 g/are): 4 (1-10); Herbicidal activity, Tall morningglory ([13]; 10 g/are): 5 (0); Herbicidal activity, Sicklepod ([14]; 5 g/are): 4 (1-10); Herbicidal activity, Sicklepod ([14]; 10 g/are): 4 (1-10); Herbicidal activity, Velvetleaf ([15]; 5 g/are): 5 (0); Herbicidal activity, Velvetleaf ([15]; 10 g/are): 5 (0)
CCC(C)Oc1cc(N2C(=O)C3=C(CCCC3)C2=O)c(F)cc1Cl (stereo not drawn) [compound 4] |  |  |  |  |  |  |  |  |  |  |  |  |  |  |  |  |  |  | 0 (100) | 1 (90-99) | Herbicidal activity, Barnyardgrass ([8]; 1.25 g/are): 1 (41-60); Herbicidal activity, Barnyardgrass ([8]; 5 g/are): 5 (0); Herbicidal activity, Wild cat ([9]; 1.25 g/are): 2 (21-40); Herbicidal activity, Wild cat ([9]; 5 g/are): 5 (0); Herbicidal activity, Wild mustard ([10]; 1.25 g/are): 4 (1-10); Herbicidal activity, Wild mustard ([10]; 5 g/are): 5 (0); Herbicidal activity, Velvetleaf ([11]; 1.25 g/are): 5 (0); Herbicidal activity, Velvetleaf ([11]; 5 g/are): 5 (0); Phytotoxicity, Corn ([12]; 5 g/are): 0 (100); Phytotoxicity, Corn ([12]; 10 g/are): 0 (100); Herbicidal activity, Tall morningglory ([13]; 5 g/are): 4 (1-10); Herbicidal activity, Tall morningglory ([13]; 10 g/are): 5 (0); Herbicidal activity, Sicklepod ([14]; 5 g/are): 4 (1-10); Herbicidal activity, Sicklepod ([14]; 10 g/are): 4 (1-10); Herbicidal activity, Velvetleaf ([15]; 5 g/are): 5 (0); Herbicidal activity, Velvetleaf ([15]; 10 g/are): 5 (0)
CCCCCCCOc1cc(N2C(=O)C3=C(CCCC3)C2=O)c(F)cc1Cl [compound 9] | 0 (0-9) | 0 (0-9) | 0 (0-9) | 4 (70-89) | 4 (70-89) | 5 (90-100) | 5 (90-100) | 5 (90-100) | 5 (90-100) | 5 (90-100) | 5 (90-100) | 5 (90-100) | 3 (50-69) | 4 (70-89) | 4 (70-89) | 3 (50-69) | 4 (70-89) | 4 (70-89) |  |  | 
CCCCCCCCOc1cc(N2C(=O)C3=C(CCCC3)C2=O)c(F)cc1Cl [Compound No. 10] | 0 (0-9) | 0 (0-9) | 0 (0-9) | 3 (50-69) | 4 (70-89) | 5 (90-100) | 5 (90-100) | 5 (90-100) | 5 (90-100) | 5 (90-100) | 5 (90-100) | 5 (90-100) | 3 (50-69) | 3 (50-69) | 4 (70-89) | 3 (50-69) | 4 (70-89) | 4 (70-89) |  |  | 
CCCCOc1cc(N2C(=O)C3=C(CCCC3)C2=O)c(F)cc1Cl [compound 6] |  |  |  |  |  |  |  |  |  |  |  |  |  |  |  |  |  |  | 0 (100) | 0 (100) | Herbicidal activity, Barnyardgrass ([8]; 1.25 g/are): 3 (11-20); Herbicidal activity, Barnyardgrass ([8]; 5 g/are): 4 (1-10); Herbicidal activity, Wild cat ([9]; 1.25 g/are): 1 (41-60); Herbicidal activity, Wild cat ([9]; 5 g/are): 3 (11-20); Herbicidal activity, Wild mustard ([10]; 1.25 g/are): 4 (1-10); Herbicidal activity, Wild mustard ([10]; 5 g/are): 5 (0); Herbicidal activity, Velvetleaf ([11]; 1.25 g/are): 5 (0); Herbicidal activity, Velvetleaf ([11]; 5 g/are): 5 (0); Phytotoxicity, Corn ([12]; 5 g/are): 0 (100); Phytotoxicity, Corn ([12]; 10 g/are): 0 (100); Herbicidal activity, Tall morningglory ([13]; 5 g/are): 4 (1-10); Herbicidal activity, Tall morningglory ([13]; 10 g/are): 4 (1-10); Herbicidal activity, Sicklepod ([14]; 5 g/are): 4 (1-10); Herbicidal activity, Sicklepod ([14]; 10 g/are): 4 (1-10); Herbicidal activity, Velvetleaf ([15]; 5 g/are): 5 (0); Herbicidal activity, Velvetleaf ([15]; 10 g/are): 5 (0)
CC(C)CCOc1cc(N2C(=O)C3=C(CCCC3)C2=O)c(F)cc1Cl [compound 11] | 0 (0-9) | 0 (0-9) | 0 (0-9) | 4 (70-89) | 5 (90-100) | 5 (90-100) | 5 (90-100) | 5 (90-100) | 5 (90-100) | 5 (90-100) | 5 (90-100) | 5 (90-100) | 4 (70-89) | 4 (70-89) | 5 (90-100) | 3 (50-69) | 4 (70-89) | 5 (90-100) |  |  | 
